Assay results reported in patent US12104173B2, “Method for differentiation of human pluripotent stem cell lines in suspension culture” (AGENCY FOR SCIENCE, TECHNOLOGY AND RESEARCH, priority 2018, dated 2024).

B1: BMP4: bone morphogenic protein; BMP4-based protocol uses 50 ng/ml BMP4 (protein, UniProt P12644 293-408, looked up)
Bone morphogenetic protein 4: SPKHHSQRARKKNKNCRRHSLYVDFSDVGWNDWIVAPPGYQAFYCHGDCPFPLADHLNSTNHAIVQTLVNSVNSSIPKACCVPTELSAISMLYLDEYDKVVLKNYQEMVVEGCGCR

Assays:
Assay type in all cases: cell-based, human
[1] = test system: hES-3 microcarrier aggregates; assay: BMP4-based vs CHIR-based differentiation: erythroblasts output per hPSC seeded
From the text: Six conditions were then chosen for the detailed study; conditions 1, 2 and 4 were based on BMP4/Activin A protocols, while conditions 7, 16 and 18 were CHIR-mediated protocols (Table 1).

[2] = test system: hES-3-MC aggregates (agitation culture); assay: DoE multifactorial mesoderm induction: % KDR+ cells by flow cytometry; conditions: BMP4 10 to 50 ng/ml, Activin A 0-80 ng/ml, CHIR exposure 0 to 24 hours, 4 days post initiation of differentiation
Experimental: (§1) Different doses (and/or duration of exposure) of cytokines and small-molecules with known roles in inducing mesoderm and hematopoietic differentiation were evaluated using the MODDE® software for differentiation of hES-3 MC aggregate cultures initially derived under agitation. The DoE was designed to investigate effects of BMP4 (10-50 ng/ml), Activin A (0 to 80 ng/ml), CHIR (0-15 μM at 0 to 48 hours after start of mesoderm induction). These variables generated 29 culture conditions (FIG. 2A), which were tested for their effects on percent of KDR+ cells (4 days post initiation of differentiation) and the following stage of hematopoietic precursors generation (2 weeks of culture in Blast growth medium (BGM)).
Design of experiments (DoE) using a resolution IV Fractional Factorial Design was performed using the MODDE software (Sartorius Stedim Biotech, Germany) to evaluate initial BMP4, Activin A and CHIR-99021, doses and duration of exposure for their effects on the following response factors: induction of KDR+ cells 4 days post mesoderm induction or total hematopoietic precursor cells generated 2 weeks post differentiation.
Design of experiments (DoE) using a resolution IV Fractional Factorial Design was performed using the MODDE software (Sartorius Stedim Biotech, Germany) to evaluate initial BMP4, Activin A and CHIR-99021, doses and duration of exposure for their effects on the following response factors: induction of KDR+ cells 4 days post mesoderm induction or total hematopoietic precursors generated 2 weeks post differentiation. […] Computed model with R2 scores>0.5 indicate a model of significant fit, Q2 scores>0.1 indicate a significant model while Q2>0.5 indicate a good model for estimation of future prediction precision, model validity score of <0.25 indicate statistically significant model problems and reproducibility (the variation of the replicates compared to overall variability) should be greater than 0.5. […]

[3] = test system: hES-3-MC aggregates (agitation culture); assay: DoE: hematopoietic precursor generation, 14 days in Blast growth medium (BGM); conditions: BMP4 10 to 50 ng/ml, Activin A 0-80 ng/ml, CHIR exposure 0 to 24 hours, 2 weeks in BGM
Experimental: as §1
Design of experiments (DoE) using a resolution IV Fractional Factorial Design was performed using the MODDE software (Sartorius Stedim Biotech, Germany) to evaluate initial BMP4, Activin A and CHIR-99021, doses and duration of exposure for their effects on the following response factors: induction of KDR+ cells 4 days post mesoderm induction or total hematopoietic precursors generated 2 weeks post differentiation. […] Computed model with R2 scores>0.5 indicate a model of significant fit, Q2 scores>0.1 indicate a significant model while Q2>0.5 indicate a good model for estimation of future prediction precision, model validity score of <0.25 indicate statistically significant model problems and reproducibility (the variation of the replicates compared to overall variability) should be greater than 0.5.
Human pluripotent stem cell-microcarrier (HPSC-MC) aggregates (derived from 7 day continuous agitation conditions), equivalent to 5×10^5 cells, were seeded and differentiated in 24-well ultra-low attachment plates with Stemline II medium using multi-factorial conditions as detailed in FIG. 2A and FIG. 6A, as well as in Table 3. […]
Following 4 days of differentiation, single cells were derived from microcarrier aggregates by treatment with TrypLE. […] Fold-expansion was calculated as total number of cells derived after 2 weeks as compared to initial seeding of 1×10^5 cells.

[4] = hES-3 microcarrier aggregates derived from agitation condition
[5] = hES-3 microcarrier aggregates derived from static condition

Molecule | erythroblasts output per human pluripotent stem cell seeded [1, 4] | erythroblasts output per human pluripotent stem cell seeded [1, 5] | effect of factor on percent of KDR+ cells (DoE) [2] | effect of factor on hematopoietic precursor generation (DoE) [3]
Cc1c[nH]c(-c2cnc(NCCNc3ccc(C#N)cn3)nc2-c2ccc(Cl)cc2Cl)n1 [CHIR-99021, 6-[[2-[[4-(2,4-Dichlorophenyl)-5-(5-methyl-1H-imidazol-2-yl)-2-pyrimidinyl]amino]ethyl]amino]-3-pyridinecarbonitrile] | 8.0±2.1 | 11.5±2.6 | significant increase | significant increase
B1 | 1.2±0.7 | 7.7±1.9 | did not significantly alter | did not significantly alter
